Measurements: patent EP0481701B1, “Treatment composition” (priority 1990, dated 1992)

Columns and labels:
Strep. sanguis (CR2b) = experiment: bacterial regrowth assay (antibacterial efficacy of Triclosan delivered in targeted liposomes); type: cell-based
Procedure: Liposomes were prepared by the reverse phase evaporation procedure referred to above incorporating Triclosan in the lipid mixture. Some of the liposome samples were prepared with concanavalin A (ConA) conjugated to their surface. Details are as follows: (a) Derivatisation of ConA with SATA 2.5µl of a stock solution containing 9.08mg N-succinimidyl-S-acetyl thioacetate (SATA) in 50µl dimethylformamide was added to ConA solution (10mg in 2.5ml phosphate (50mM) - EDTA (1mM) buffer, pH7.5) at room temperature. After reaction (15min) the derivatised protein (s-ConA) was separated from unreacted SATA by gel filtration on a Sephadex G-50 column (15 x 2cm). The s-ConA was activated by deacetylation using, for each 2ml of protein solution, 200µl of 0.1M hydroxylamine solution, made up in 2.5mM EDTA with sufficient solid Na₂HPO₄ added to bring the pH to 7.5. (b) Preparatlon of DPPE-MBS 40mg L-α-dipalmitoylphosphatidylethanolamine (DPPE) was dissolved in a mixture of 16ml dry chloroform, 2ml dry methanol and 20mg dry triethylamine. 20mg maleimidobenzoyl-N-hydroxysuccinimide ester (MBS) was added and the reaction mixture was stirred under nitrogen at room temperature for 24h, after which the organic phase was washed three times with phosphate buffered saline (PBS, pH7.3) to remove unreacted MBS. The DPPE-MBS derivative was recovered from the organic phase by rotary evaporation and was stored in a chloroform/methanol mixture (9:1 v/v) at 4°C. (c) Preparation of liposomes 27mg dipalmitoylphosphatidylcholine (DPPC), 3mg phosphatidylinositol (PI, from wheat germ) and 3mg DPPE-MBS were dissolved in 9ml chloroform/methanol mixture (4:1 v/v). […] The fractions collected were analysed for phospholipid and Triclosan by scintillation counting. Particle sizes of the liposomes were determined by photon correlation spectroscopy, following the method described in Hutchinson et al., Biochim. […] (e) Assessment of efficacy The antibacterial efficacy of Triclosan delivered in targeted liposomes was assessed using a bacterial regrowth assay. […]

[1] = solubility of Triclosan in PBS (remark in the method); type: physicochemical; conditions: PBS without ethanol
Procedure: Liposomes were prepared by the reverse phase evaporation procedure referred to above incorporating Triclosan in the lipid mixture. Some of the liposome samples were prepared with concanavalin A (ConA) conjugated to their surface. Details are as follows: (a) Derivatisation of ConA with SATA 2.5µl of a stock solution containing 9.08mg N-succinimidyl-S-acetyl thioacetate (SATA) in 50µl dimethylformamide was added to ConA solution (10mg in 2.5ml phosphate (50mM) - EDTA (1mM) buffer, pH7.5) at room temperature. After reaction (15min) the derivatised protein (s-ConA) was separated from unreacted SATA by gel filtration on a Sephadex G-50 column (15 x 2cm). The s-ConA was activated by deacetylation using, for each 2ml of protein solution, 200µl of 0.1M hydroxylamine solution, made up in 2.5mM EDTA with sufficient solid Na₂HPO₄ added to bring the pH to 7.5. […] The fractions collected were analysed for phospholipid and Triclosan by scintillation counting. Particle sizes of the liposomes were determined by photon correlation spectroscopy, following the method described in Hutchinson et al., Biochim. […] (e) Assessment of efficacy The antibacterial efficacy of Triclosan delivered in targeted liposomes was assessed using a bacterial regrowth assay. […]

Oc1cc(Cl)ccc1Oc1ccc(Cl)cc1Cl [Triclosan in solution, 2,4,4'-trichloro-2'-hydroxy diphenyl ether]
% inhibition of growth incubated with saliva (Strep. sanguis (CR2b); 1min exposure, PBS plus human saliva (1:1), 5µg Triclosan in 100µl PBS with 10% ethanol): 3%
% inhibition of growth without saliva (Strep. sanguis (CR2b); 1min exposure, PBS, no saliva, 5µg Triclosan in 100µl PBS with 10% ethanol): 8%
% inhibition of growth (Strep. sanguis (CR2b); relative to PBS alone, 2h exposure at 37°C, regrowth 18h, optical density at 630nm, PBS containing 10% ethanol, total Triclosan 10µg (free, liposomes with ConA) or 20µg (liposomes without ConA) in 100µl): 75%
solubility in PBS alone [1]: virtually insoluble
